Series [1] deals with T1, 15-lipoxygenase (Oryctolagus cuniculus, UniProt P12530).
T1 construct: The lipoxygenase from rabbit reticulocytes is obtained in an electrophoretically and immunologically pure form; from tissue; host or cells: rabbit reticulocytes
T1 sequence (P12530 1-663): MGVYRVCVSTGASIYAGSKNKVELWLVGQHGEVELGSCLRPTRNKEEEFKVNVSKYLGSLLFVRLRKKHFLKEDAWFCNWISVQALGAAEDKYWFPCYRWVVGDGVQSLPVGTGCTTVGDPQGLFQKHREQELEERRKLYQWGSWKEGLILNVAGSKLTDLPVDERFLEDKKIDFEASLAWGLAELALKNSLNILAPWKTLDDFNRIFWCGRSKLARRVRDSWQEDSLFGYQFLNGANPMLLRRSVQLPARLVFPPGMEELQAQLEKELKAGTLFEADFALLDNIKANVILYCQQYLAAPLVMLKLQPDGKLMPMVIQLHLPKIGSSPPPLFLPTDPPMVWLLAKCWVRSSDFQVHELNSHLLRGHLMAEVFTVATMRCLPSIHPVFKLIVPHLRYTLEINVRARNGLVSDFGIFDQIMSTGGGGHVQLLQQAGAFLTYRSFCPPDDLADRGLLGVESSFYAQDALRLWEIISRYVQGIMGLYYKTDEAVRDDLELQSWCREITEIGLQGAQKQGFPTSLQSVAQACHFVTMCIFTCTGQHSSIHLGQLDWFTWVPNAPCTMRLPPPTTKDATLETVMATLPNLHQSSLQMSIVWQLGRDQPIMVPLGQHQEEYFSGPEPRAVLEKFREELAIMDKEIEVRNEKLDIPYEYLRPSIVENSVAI
As to the kind of experiment: Inhibition of the activity of 15-lipoxygenase from rabbit reticulocytes. Format: biochemical. The protocol: The lipoxygenase from rabbit reticulocytes is obtained in an electrophoretically and immunologically pure form by the method described in the literature [S. M. Rapoport et al., Eur. J. Biochem. 96, 545 (1979]. The lipoxygenase activity is determined at 25° C. via amperometric measurement of the O2 consumption by means of a Clark electrode in the following system: 0.1 M potassium phosphate pH 7.4 containing 0.2% of sodium cholate and 0.53 mM linoleic acid. The enzyme concentration in the measurement bath is 25 nM. The substances to be tested are added as a solution in methylglycol (freshly distilled). […] The enzyme reaction is started by addition of sodium cholate and linoleic acid. The titration curve of the inhibition and from this the concentration needed for 50% inhibition are determined by varying the active ingredient concentration.

For series [2], the target named is T2, prostaglandin H synthase (Ovis aries, UniProt P05979).
T2 construct: H synthase from sheep seminal vesicles is obtained by the method described in the literature; from tissue; host or cells: sheep seminal vesicles
T2 sequence (P05979 25-600): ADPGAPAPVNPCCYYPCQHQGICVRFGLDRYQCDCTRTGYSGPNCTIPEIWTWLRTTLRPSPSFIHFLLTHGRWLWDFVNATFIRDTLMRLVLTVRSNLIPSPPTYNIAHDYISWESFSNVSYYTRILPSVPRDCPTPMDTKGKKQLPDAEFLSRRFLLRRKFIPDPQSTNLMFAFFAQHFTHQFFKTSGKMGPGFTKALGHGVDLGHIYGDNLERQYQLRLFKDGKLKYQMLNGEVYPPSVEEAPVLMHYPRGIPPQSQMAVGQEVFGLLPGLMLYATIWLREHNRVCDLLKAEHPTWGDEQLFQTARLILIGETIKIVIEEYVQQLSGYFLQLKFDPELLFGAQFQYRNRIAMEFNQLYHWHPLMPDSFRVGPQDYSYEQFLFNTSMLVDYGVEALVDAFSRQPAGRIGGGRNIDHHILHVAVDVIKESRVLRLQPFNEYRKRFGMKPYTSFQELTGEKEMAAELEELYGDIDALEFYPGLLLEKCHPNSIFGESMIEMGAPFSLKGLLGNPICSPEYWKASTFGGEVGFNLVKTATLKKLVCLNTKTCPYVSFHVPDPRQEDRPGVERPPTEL
Description: Inhibition of the activity of prostaglandin H synthase from sheep seminal vesicles. The class given is biochemical. The method, then:
Prostaglanding H synthase from sheep seminal vesicles is obtained by the method described in the literature by Van der Oudaraa, F. J. G.; Buytenhek, M.; Methods Enzymol. 86, 60 (1982).
The enzyme activity is determined at 25° C. by polargraphic measurement of the oxygen consumption with a Clark electrode.
The measurement batch consists of […] ml^-1 of prostaglandin H synthase in 0.1 M Tris-HCl buffer pH=8.0, 5 mM tryptophan, 1 μM haemin and 0.124 mM arachidonic acid. The substances to be tested are dissolved in methylglycol and incubated with the enzyme in the absence of arachidonic acid for 10 minutes at 25° C. The enzyme reaction is started with arachidonic acid.
The titration curve of the inhibition and from this the concentration needed for 50% inhibition are determined by varying the active ingredient concentration.

For series [3], the system named is isolated lung parenchyma strips. As to the kind of experiment: Arachidonic acid-induced contraction of isolated lung parenchyma strips. The class given is cell-based, guinea-pig. As to conditions: for inhibition at 50 µM: 5×10^-5 M. The method, then:
Testing of antiasthmatic active qualities of triclosan and fenticlor in vitro is carried out on isolated tracheal spirals and lung parenchyma strips of adult guinea-pigs (250-500 g) of both sexes. The tracheal spirals are prepared by the method described by Constantine [J. W. Constantine et al., J. Pharm. Pharmacol. 17, 384 (1965)]. Particular emphasis is placed on complete removal of the surrounding connective tissue and on maintaining the integrity of the epithelium [N. A. Flavahan et al., J. Appl. Physiol. 58, 834 (1985)].
The lung parenchyma strip is prepared in accordance with the method described by Del Monte [L. Del Monte et a., Naunym-Schmiedebergs Arch. Pharmacol., 338, 417 (1988)]. The contraction of the isolated organs is determined as isotonic measurement of the path under standardised conditions [J. Slapke et al., Biomed. Biochim. Acta 42, 1309 (1983)] in a multiple organ bath.
A modified Krebs-Henseleit solution (pH=7.4) of the following composition is used for the studies (m×mol 1^-1): NaCl 134.8, KCl 5.9, Tris 10.02, CaCl2 1.82, MgCl2 1.145, glucose 1.11. Air is used for gassing. The bath temperature is 37° C. for the lung parenchyma strips and 35° C. for the tracheal spirals. Conditioning of the preparations is performed several times with 5×10^-4 M acetylcholine to obtain the standardisation value, this substance subsequently being flushed out. In all studies, the contractions are induced by addition of arachidonic acid to the organ bath in increasing concentrations and are measured cumulatively. All the measurements are made in the present of 5 μM indomethacin.

For series [4] the following is noted: literature statement; G. B. Kasting et al. cited for the non-steroidal drugs; cited from earlier work.
Series [5] deals with arachidonic acid-induced bronchoconstriction. Description: Arachidonic acid-induced bronchoconstriction in the guinea-pig. The class given is in vivo. The method, then: A bronchospasm is induced in non-sensitised guinea-pigs in the same experimental design as in Example 2 by intratracheal instillation of 2 mg/kg of Na arachidonate solution in phosphate buffer pH=7.4 [G. Becher et al., Z. Erkrankg. Atm.-org. 171, 85 (1988)].

For series [6], the system named is ovalbumin-induced bronchoconstriction. Description: Ovalbumin-induced bronchoconstriction in the ovalbumin-sensitised guinea-pig. The class given is in vivo. The method, then: Guinea-pigs are sensitised i.p. with 10 μg of ovalbumin and 100 mg of aluminium hydroxide in 0.5 ml of isotonic saline solution by the method of Anderson [P. Anderson, Brit. J. Pharmacol. 77, 301 (1982)]. After 14 days, the conscious animals are given a booster by inhalation of a 0.1% strength atomised ovalbumin solution. Only animals with a positive reaction are used for comparison from the fourth day after the booster. Guinea-pigs with a body weight of 450-550 g are were anaesthetised with 1.3 g/kg of ethylurethane i.p. Thereafter, a cannula is connected to the trachea. The animals are relaxed with 0.2 mg/kg pancuronium bromide i.v. and respirated in a tank respirator (f=20/min, p.=3 pPa, I:E=1:1). The animals breath in air from the room by the tracheal cannula led to the outside. The tidal volume VT is measured pneumota- chographically. 1 mg/kg of ovalbumin in 300 μl of water is instilled intratracheally to induce the spasm [G. Becher et al., Z. Erkrankg., Arm.-org. 166, 223 (1986)].
Statistical analysis of the results is carried out with the parameter-free U-test according to Mann and Whitney, p.≤0.05.

Setting [7] is: Cavia porcellus, 5 μM indomethacin.
The mark [8] stands for this setting: 100 mg/kg p.o. 2 hours before, Na arachidonate 2 mg/kg intratracheally.
Setting [9] is: 100 mg/kg p.o. 2 hours before, ovalbumin 1 mg/kg intratracheally.

Where two headings read alike, the source gives them in different places.

Regarding `Oc1c(Cl)cc(Cl)c(O)c1Cc1c(O)c(Cl)cc(Cl)c1O` [2,2'6,6'-Tetrahydroxy-3,3',5,5'-tetrachloro-diphenylmethane], the IC50 turned out to be 3.6 µM in series [1] and 17 µM in series [2].
For the compound `Oc1c(Cl)cc(Cl)c(Cl)c1Cc1c(O)c(Cl)cc(Cl)c1Cl` [2,2'-Dihydroxy-3,3',5,5',6,6'-hexachloro-diphenylmethane], the IC50 in series [1] was found to be 3.5 µM; in series [2] it was 17 µM.
For `Oc1c(Br)cc(Br)cc1Cc1cc(Br)cc(Br)c1O` [2,2'-Dihydroxy-3,3',5,5'-tetrabromo-diphenylmethane] the same measures were 2.8 µM and 45 µM.
On to `Oc1c(Cl)cc(Cl)cc1Cc1cc(Cl)cc(Cl)c1O` [2,2'-Dihydroxy-3,3',5,5'-tetrachloro-diphenylmethane], for which the IC50 in series [1] (25° C., pH 7.4, 0.53 mM linoleic acid, enzyme 25 nM, read-out: 15-LOX IC50) worked out at 9.5 µM; in series [2] (25° C., pH=8.0, 0.124 mM arachidonic acid, 10 minutes preincubation, read-out: PG H synthase IC50), 60 µM.
As for `Oc1c(Cl)cc(Br)cc1Cc1cc(Br)cc(Cl)c1O` [2,2'-Dihydroxy-3,3'-dichloro-5,5'-dibromo-diphenylmethane], the figures for the IC50 in series [1] and in series [2] were 3.8 µM and 28 µM, respectively.
For `Cc1cc(Cc2ccccc2)cc(Cl)c1O` [2-Chloro-6-methyl-4-benzylphenol], the IC50 amounted to 28 µM in series [1] and 35 µM in series [2].
Consider `Oc1c(Br)cc(Cc2cc(Br)c(O)c(Br)c2)cc1Br` [4,4'-Dihydroxy-3,3',5,5'-tetrabromo-diphenylmethane], for which the IC50 in series [1] is 5 µM; in series [2], 17 µM.
For `Oc1c(Cl)cc(Cc2cc(Cl)c(O)c(Br)c2)cc1Br` [4,4'-Dihydroxy-3,3'-dibromo-5,5'-dichloro-diphenylmethane] the same measures were 10.5 µM and 180 µM.
For `Cc1cc(Cl)cc(Cc2ccccc2)c1O` [4-Chloro-2-methyl-6-benzylphenol] the same measures were 2.5 µM and 30 µM.
As to `NC1=NN(c2cccc(C(F)(F)F)c2)CC1` [BW 755 C], in series [3] (setting [7]), the inhibition at 50 µM turned out to be 50%.
On to `Oc1ccc(Cl)cc1Cc1ccccc1` [chlorophene, 2-Benzyl-4-chlorophenol], for which the IC50 in series [1] turned out to be 2 µM; in series [2], 40 µM.
With `O=C(O)Cc1ccccc1Nc1c(Cl)cccc1Cl` [diclofenac], the skin penetration result in series [4] was “inadequate skin penetration”.
As for `Oc1ccc(Cl)cc1Sc1cc(Cl)ccc1O` [fenticlor, 2,2'-dihydroxy-5,5'-dichloro-diphenyl sulfide], the “inhibition of the maximum bronchospasm” value in series [5] (setting [8]) is 16.5%; in series [6] (setting [9]) it was 60%. Further, the “time to return to the starting volume (tidal volume)” value in series [5] (setting [8]) and in series [6] (setting [9]) was 25 min throughout. In series [5] (fenticlor 100 mg/kg p.o. 2 hours before, U-test p≤0.05), the “inhibition of the arachidonic acid-induced bronchoconstrictive reaction” value is “inhibited significantly (parameter-free U-test according to Mann and Whitney, p≤0.05) from the fifth minute”. Besides, the IC50 in series [3] (Cavia porcellus, read-out: ID50) amounted to 5 µM; in series [1], 1.4 µM; in series [2] it was 15.5 µM. The “reduction of the allergic reaction (bronchoconstriction)” value in series [6] (fenticlor 100 mg/kg p.o. 2 hours before, in comparison with controls, p≤0.05) is on record as “reduced significantly”.
Take `COc1ccc2c(c1)c(CC(=O)O)c(C)n2C(=O)c1ccc(Cl)cc1` [indomethacin]: the skin penetration result in series [4] is “inadequate skin penetration”.
As to `CC(C(=O)O)c1cccc(C(=O)c2ccccc2)c1` (stereo not drawn) [ketoprofen], in series [4], the skin penetration entry is on record as “inadequate skin penetration”.
As for `CN1CCC(=C2c3ccccc3CC(=O)c3sccc32)CC1` [ketotifen], testing at 1 µM in series [3] (Cavia porcellus, 10^-6 M, 5 μM indomethacin) gave an inhibition of 25%.
In series [3] (setting [7]), `CC(Cc1ccc(O)c(O)c1)C(C)Cc1ccc(O)c(O)c1` (stereo not drawn) [nordihydroguarjiaretic acid] showed an inhibition at 50 µM of 50%.
Regarding `Oc1cc(Cl)ccc1Oc1ccc(Cl)cc1Cl` [triclosan, 2,4,4'-trichloro-2'-hydroxy-diphenyl ether], the “inhibition of the arachidonic acid-induced contraction” value in series [3] (10^-6 M triclosan, arachidonic acid 10^-7 -10^3 M (so in the source), 5 μM indomethacin) is “complete inhibition”. For the same compound, the “relaxation on isolated lung parenchyma strips” value in series [3] (triclosan concentrations of >10^-6 M) was “pronounced dose-related relaxation”. The results for the IC50 in series [1] and in series [2] were 2.4 µM and 23 µM, respectively.

Broadly, the inhibition is the relative decrease from the control value, in per cent.
